Where a name gives a salt, the structure may show the parent alone. Read-outs that look alike come from different tables or passages of the source.
Tests used:
thrombin receptor = biological target: T1, thrombin receptor (Homo sapiens, UniProt P25116); experiment: Receptor binding assay ([3H] high affinity TRAP, platelet membrane)
T1 construct: centrifuged at 40,000 g for 60 minutes to yield platelet membrane; from tissue; host or cells: platelet membrane prepared from donor blood (platelet rich plasma)
T1 sequence (P25116 22-425): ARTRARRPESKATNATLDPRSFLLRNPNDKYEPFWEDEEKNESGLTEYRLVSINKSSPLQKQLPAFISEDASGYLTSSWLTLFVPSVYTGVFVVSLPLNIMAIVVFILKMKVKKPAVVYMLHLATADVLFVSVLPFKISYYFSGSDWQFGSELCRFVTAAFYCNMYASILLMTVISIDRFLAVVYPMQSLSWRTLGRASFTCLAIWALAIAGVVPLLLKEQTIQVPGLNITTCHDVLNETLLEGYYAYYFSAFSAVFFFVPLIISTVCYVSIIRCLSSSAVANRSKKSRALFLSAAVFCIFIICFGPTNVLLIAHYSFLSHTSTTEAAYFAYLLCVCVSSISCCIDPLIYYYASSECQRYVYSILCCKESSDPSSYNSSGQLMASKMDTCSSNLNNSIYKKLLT
Protocol: Blood was sampled from a healthy adult who had taken no drugs for one week, and 3.8% citric acid (a ratio of 1:9 with respect to the blood) was added as an anticoagulant. The mixture was then centrifuged at 100 g for 10 minutes at room temperature to yield platelet rich plasma (PRP). The platelet precipitate obtained by centrifuging the PRP was homogenized with a Dounce homogenizer, and then centrifuged at 40,000 g for 60 minutes to yield platelet membrane. The platelet membrane was suspended in a solution prepared by adding DMSO (dimethyl sulfoxide) at 1% concentration to Buffer 1: a 50 mM Tris-HCl buffer containing 10 mM MgCl2 and 1 mM EGTA (ethylene glycol tetraacetic acid), and the suspension was stored at −80° C. Bovine albumin and DMSO were added to Buffer 1 at 0.1% and 20%, respectively, to make preparation solutions for the test compound. The test compounds (20 μl) diluted at various concentrations with the preparation solutions were added to a 96-well multiscreen plate. […] After then adding 100 μl of the previously prepared platelet membrane suspension (0.4 mg/ml) and mixing, incubation was performed at 37° C. for 1 hour. The reaction mixture was suction filtered and then rinsed 3 times with 200 μl of Buffer 1. Next, 30 μl of liquid scintillator was added for measurement of the radioactivity of the plate using a Top Counter (Packard), the value of the radioactivity in the presence of the test compound minus non-specific binding portion was divided by the specific binding value (the value of the binding in the absence of the compound minus the non-specific binding portion) to determine the binding ratio, from which the IC50 value was calculated. The non-specific binding was the value obtained with addition of 10 μM of high affinity TRAP.

[1] = tested on: Vascular smooth muscle cells (rSMC); experiment: Rat smooth muscle cell proliferation assay; format: cell-based; conditions: 48 h; male SD rat aorta rSMC; thrombin 0.1 unit/ml; 2 days; MTT, OD 590 nm; read-out: Rat SMC IC50
Protocol: [Rat Smooth Muscle Cell Proliferation Assay]
Vascular smooth muscle cells (rSMC) were isolated from male SD rat aorta by the explant method. DMEM medium (Sigma) containing 10% fetal bovine serum (GibcoBRL), streptomycin and penicillin was used as the proliferation medium, and subculture was carried out at 37° C. in the presence of 5% CO2. Culture was initiated after adding 100 μl of rSMC suspension in proliferation medium at a concentration of 1×10^4 cells/ml, to a 96-well plate. After 3 days, cells were rinsed twice with 100 μl of DMEM medium, the medium was exchanged with 100 μl of DMEM medium containing 0.1% albumin (starvation medium), and serum starvation was initiated. The medium was exchanged two days after the serum starvation, 80 μl of starvation medium and 10 μl of the test compound diluted to different concentrations with the starvation medium were added, and then 10 μl of thrombin dissolved in the starvation medium (final concentration: 0.1 unit/ml) was added prior to further incubation for 2 days.
Upon adding 20 μl of MTT (3-[4,5-dimethylthiazol-2-yl]-2,5-diphenyltetrazolium bromide) dissolved in DPBS to 7.5 mg/ml, incubation was continued for 4 hours. The medium was removed by suction, 50 μl of a 10% SDS/0.029% ammonia solution was added, and the mixture was allowed to stand for 2 hours in a CO2 incubator for complete lysis of the cells. As an index of cell proliferation, the OD 590 nm was measured using a plate reader (EL340, BIO-TEK Instruments Inc.), and the control OD value (OD value in the absence of the test compound) minus the OD value in the presence of the test compound was divided by the control OD value minus the blank OD value (OD value without thrombin stimulation) to determine the inhibition ratio, from which the IC50 value was calculated.

[2] = tested on: platelet rich plasma (PRP), thrombin-induced platelet aggregation; experiment: Inhibitory effects on platelet aggregation using platelet rich plasma; format: cell-based; conditions: Homo sapiens, 0.1 h, read-out: Thr IC50
Protocol: [Inhibitory Effects on Platelet Aggregation Using Platelet Rich Plasma]
Blood was sampled from a healthy adult who had taken no drugs for one week, and 3.8% citric acid (a ratio of 1:9 with respect to the blood) was added as an anticoagulant. The mixture was then centrifuged at 100 g for 10 minutes at room temperature to yield platelet rich plasma (PRP). The PRP-removed blood was further centrifuged at 1000 g for 10 minutes to yield platelet poor plasma (PPP). The number of platelet was counted using a multi-parameter automatic hemocyte counter (K4500, Sysmex), and the PRP was diluted to approximately 300,000/μl with the PPP. The platelet aggregation activity was determined in the following manner using an Aggregometer (MC Medical). GPRP-NH2 (final concentration 1 mM, 25 μl) was added as a fibrin polymerization inhibitor to the PRP (175 μl), after which Ca-free Tyrode solution (control) or the test compound suspension (25 μl) at different concentrations was added, incubation was performed at 37° C. for 3 minutes and then 25 μl of thrombin at the minimum concentration required to produce maximum aggregation (final concentration: optimum concentration among 0.5–1.5 units/ml) was added, for initiation of platelet aggregation. PRP and Ca-free Tyrode solution (control) or the preparation solutions at various concentrations were pre-incubated at 37° C. for 60 minutes, prior to the platelet aggregation reaction in some experiments. After addition of thrombin, the aggregation reaction was examined for 6 minutes and the areas under the aggregation curves were compared to determine the inhibition ratio, from which the IC50 value was calculated.

[3] = platelet membrane of healthy adult, 25 nM [3H] high affinity TRAP, 37° C., 1 hour, read-out: RBA IC50
[4] = PRP of healthy adult, aggregation initiated with thrombin (0.5–1.5 units/ml), area under aggregation curve, 6 minutes

| Compound | IC50 (thrombin receptor; [3]) [nM] | IC50 [1] [nM] | IC50 [2, 4] [nM] | IC50 (thrombin receptor) [nM] | IC50 [2] [nM] |
| --- | --- | --- | --- | --- | --- |
| CCOc1cc2c(c(F)c1OCC)C(=N)N(CC(=O)c1cc(N(C)C)c(OC)c(C(C)(C)C)c1)C2 [Example 6, 1-(3-tert-Butyl-5-dimethylamino-4-methoxy-phenyl)-2-(5,6-diethoxy-7-fluoro-1-imino-1,3-dihydro-isoindol-2-yl)-ethanone hydrobromide] | 24 | 19 | 72 | – | – |
| CCOc1cc2c(cc1C(=O)NC)C(=N)N(CC(=O)c1cc(OCC)c(O)c(C(C)(C)C)c1)C2 [Example 109, 2-[2-(3-tert-Butyl-5-ethoxy-4-hydroxy-phenyl)-2-oxo-ethyl]-6-ethoxy-3-imino-2,3-dihydro-1H-isoindole-5-carboxylic acid methylamide hydrobromide] | 30 | 42 | 12 | – | – |
| CCOc1cc2c(c(F)c1OCC)C(=N)N(CC(=O)c1cc(N3C[C@H](OCC)[C@@H](O)C3)c(OC)c(C(C)(C)C)c1)C2 [Example 17, 1-[3-tert-Butyl-5-((3S,4S)-3-ethoxy-4-hydroxy-pyrrolidin-1-yl)-4-methoxy-phenyl]-2-(5,6-diethoxy-7-fluoro-1-imino-1,3-dihydro-isoindol-2-yl)ethanone trifluoroacetate] | 32 | – | 80 | – | – |
| CCOc1cc2c(c(F)c1OCC)C(=N)N(CC(=O)c1cc(NCC#N)c(OC)c(C(C)(C)C)c1)C2 [Example 10, (3-tert-Butyl-5-[2-(5,6-diethoxy-7-fluoro-1-imino-1,3-dihydro-isoindol-2-yl)-acetyl]-2-methoxy-phenylamino}-acetonitrile hydrobromide] | 26 | 34 | 24 | – | – |
| CCOc1cc(C(=O)CN2Cc3cc(OCC)c(OCC)c(F)c3C2=N)cc(C(C)(C)C)c1OC [Example 28, 1-(3-tert-Butyl-5-ethoxy-4-methoxy-phenyl)-2-(5,6-diethoxy-7-fluoro-1-imino-1,3-dihydro-isoindol-2-yl)-ethanone hydrobromide] | 26 | 50 | 44 | – | – |
| CCOc1cc2c(c(F)c1OCC)C(=N)N(CC(=O)c1cc(N3CCN(C(=O)COC)CC3)c(OC)c(C(C)(C)C)c1)C2 [Example 16, 1-{3-tert-Butyl-4-methoxy-5-[4-(2-methoxy-acetyl)piperazin-1-yl]phenyl}-2-(5,6-diethoxy-7-fluoro-1-imino-1,3-dihydro-isoindol-2-yl)-ethanone hydrobromide] | 53 | 59 | 57 | – | – |
| CCOc1cc2c(c(F)c1OCC)C(=N)N(CC(=O)c1cc(N3CCN(C(C)=O)CC3)c(OC)c(C(C)(C)C)c1)C2 [Example 13, 1-[3-(4-Acetyl-piperazin-1-yl)-5-tert-butyl-4-methoxy-phenyl]-2-(5,6-diethoxy-7-fluoro-1-imino-1,3-dihydro-isoindol-2-yl)ethanone hydrobromide] | 46 | 120 | 45 | – | – |
| CCOc1cc2c(c(F)c1OCC)C(=N)N(CC(=O)c1cc(N3CCC(O)CC3)c(OC)c(C(C)(C)C)c1)C2 [Example 8, 1-[3-tert-Butyl-5-(4-hydroxy-piperidin-1-yl)-4-methoxyphenyl]-2-(5,6-diethoxy-7-fluoro-1-imino-1,3-dihydro-isoindol-2-yl)-ethanone hydrobromide] | 29 | 23 | 84 | – | – |
| CCOc1cc2c(c(F)c1OCC)C(=N)N(CC(=O)c1cc(N3CCN(CC(=O)O)CC3)c(OC)c(C(C)(C)C)c1)C2 [Example 127, (4-{3-tert-Butyl-5-[2-(5,6-diethoxy-7-fluoro-1-imino-1,3-dihydro-isoindol-2-yl)-acetyl]-2-methoxy-phenyl}-piperazin-1-yl)-acetic acid dihydrochloride] | 17 | 150 | 21 | – | – |
| CCOc1cc2c(c(F)c1OCC)C(=N)N(CC(=O)c1cc(N3C[C@@H](O)[C@H](OC)C3)c(OC)c(C(C)(C)C)c1)C2 [Example 12, 1-[3-tert-Butyl-5-((3R,4R)-3-hydroxy-4-methoxy-pyrrolidin-1-yl)-4-methoxy-phenyl]-2-(5,6-diethoxy-7-fluoro-1-imino-1,3-dihydro-isoindol-2-yl)-ethanone trifluoroacetate] | 45 | 21 | 41 | – | – |
| CCOc1cc2c(c(F)c1OCC)C(=N)N(CC(=O)c1cc(N3CCOCC3)c(OC)c(C(C)(C)C)c1)C2 [Example 7] | 26 | 32 | 41 | – | – |
| CCNC(=O)Oc1c(OCC)cc(C(=O)CN2Cc3cc(OCC)c(OCC)c(F)c3C2=N)cc1C(C)(C)C [Example 29, 2-tert-butyl-4-[2-(5,6-diethoxy-7-fluoro-1-imino-1,3-dihydro-isoindol-2-yl)-acetyl]-6-ethoxy-phenyl ethylcarbamate hydrobromide] | – | 70 | – | 76 | 52 |
| CCOc1cc2c(c(F)c1OCC)C(=N)N(CC(=O)c1cc(NC(C)C)c(OC)c(C(C)(C)C)c1)C2 [Example 26, 1-(3-tert-Butyl-5-isopropylamino-4-methoxy-phenyl)-2-(5,6-diethoxy-7-fluoro-1-imino-1,3-dihydro-isoindol-2-yl)-ethanone hydrobromide] | 17 | 62 | 79 | – | – |
| CCOc1cc2c(c(F)c1OCC)C(=N)N(CC(=O)c1cc(N3CCN(CC#N)CC3)c(OC)c(C(C)(C)C)c1)C2 [Example 11, (4-{3-tert-Butyl-5-[2-(5,6-diethoxy-7-fluoro-1-imino-1,3-dihydro-isoindol-2-yl)-acetyl]-2-methoxy-phenyl}piperazin-1-yl)-acetonitrile hydrobromide] | 45 | 75 | 57 | – | – |

Source: patent publication US7244730B2, “2-iminopyrrolidine derivatives” (Eisai Co., Ltd, priority 2001, dated 2007)
